According to article PMC9693223 (Molecules, 2022):
Where two headings read alike, the source gives them in different places.

Key:
[1] = system: L. mexicana Cas9 promastigotes; experiment: Alamar blue drug sensitivity assay, L. mexicana Cas9 promastigotes; type: cell-based, Leishmania mexicana; settings: Leishmania mexicana, 120 h, 72 h + 48 h resazurin, at least 3 independent determinations, read-out: EC50 (µM) AVG ± SEM, Cas9
From the text: (§1) We used L. mexicana promastigotes of the Cas9 strain developed by Beneke at al. to generate the ΔNT1 strain, and from there the Cas9^ΔNT1+TcrNT2 (see below); The original Cas9 strain was generously donated by Prof. Eva Gluenz (University of Bern, Switzerland). All strains in standard HOMEM (GIBCO, Life Technologies, Paisley, UK) supplemented with 10% heat-inactivated fetal bovine serum (FBS; PAA Laboratories, Linz, Austria) and 1% of a penicillin–streptomycin solution (10,000 U mL^−1 each; Life Technologies) at 25 °C, as described.
(§2) The Alamar blue assay (resazurin sodium salt) was used to determine the drug sensitivity of the L. mexicana promastigotes in vitro. The assay is based on the reduction of resazurin sodium salt (blue and non-fluorescent) to resorufin (pink color and fluorescent) by live cells. HOMEM medium with 10% FBS (100 μL) was added to all wells of a white 96-well plate apart from the first well. 200 μL of a known concentration of test compounds was diluted in HOMEM medium and placed in the first well. Compounds were tested in one plate and every compound was diluted over two rows (23 concentrations), leaving the last well of every dilution as a negative control having 100 μL HOMEM medium. Next, 100 μL of L. mexicana culture at a density of 2 × 10^6 cells mL^−1 was added into every well in the plate and incubated for 72 h at a temperature of 25 °C after which resazurin sodium salt (Sigma) (20 μL of a solution of 12.5 mg in 100 mL PBS) was added and the plate was incubated under the same conditions for a further 48 h. Fluorescence was measured in a FLUOstar OPTIMA plate reader (BMG Labtech, Germany), at a wavelength of 544 nm for excitation and 620 nm for emission. The EC50 values and fluorescence data were determined and plotted by the GraphPad Prism 8 Software using an equation for a sigmoid curve with variable slope. Pentamidine was used as positive control and every experiment was performed 3–4 times independently.

[2] = system: L. mexicana Cas9^ΔNT1 promastigotes; experiment: Alamar blue drug sensitivity assay, L. mexicana Cas9^ΔNT1 promastigotes; type: cell-based, Leishmania mexicana; settings: EC50 Cas9^ΔNT1 relative to L. mexicana Cas9
From the text: as §1, §2

[3] = system: L. mexicana Cas9^ΔNT1+TcrNT2 promastigotes; experiment: Alamar blue drug sensitivity assay, L. mexicana Cas9^ΔNT1+TcrNT2 promastigotes; type: cell-based, Leishmania mexicana; settings: Cas9^ΔNT1+TcrNT2 in comparison to L. mexicana Cas9^ΔNT1
From the text: as §1, §2

[4] = biological target: T1, TcrNT2 (Trypanosoma cruzi, UniProt Q4DHG0); experiment: Transport of [^3H]-thymidine by TcrNT2 expressed in L. mexicana Cas9^ΔNT1 (Km, inhibition); type: cell-based; settings: for δ(ΔG°) with respect to ΔG° of thymidine: change in ΔG° relative to thymidine; for δ(ΔG°), pairwise comparison with uridine: pairwise comparison vs. uridine; for δ(ΔG°), pairwise comparison with 2′-deoxyuridine: pairwise comparison vs. 2′-deoxyuridine
T1 sequence (Q4DHG0 entry or part of it): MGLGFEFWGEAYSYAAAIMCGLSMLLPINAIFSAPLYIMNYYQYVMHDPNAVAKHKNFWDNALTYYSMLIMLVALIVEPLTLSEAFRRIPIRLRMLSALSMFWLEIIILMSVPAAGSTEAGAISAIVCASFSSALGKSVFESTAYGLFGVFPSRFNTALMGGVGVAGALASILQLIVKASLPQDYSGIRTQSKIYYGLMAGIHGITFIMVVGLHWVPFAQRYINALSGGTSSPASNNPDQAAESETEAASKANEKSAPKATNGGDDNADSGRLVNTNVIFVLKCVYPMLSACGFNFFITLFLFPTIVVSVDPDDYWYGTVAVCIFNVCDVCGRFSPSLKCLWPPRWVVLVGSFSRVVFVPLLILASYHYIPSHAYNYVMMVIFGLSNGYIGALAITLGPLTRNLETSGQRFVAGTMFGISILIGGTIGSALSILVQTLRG
Method: These values can be used to calculate the Gibbs free energy of interaction ΔG°, but these experiments cannot distinguish between the test compound being transported or merely binding to the transporter and inhibiting the transit of the [^3H]-thymidine.
Transport assays were conducted with radiolabeled nucleosides [methyl-^3H]-thymidine (20 Ci/mmol; PerkinElmer (Waltham, MA, USA)) and [2,8-^3H]-adenosine (40 Ci/mmol; American Radiolabeled Chemicals (ARC, St-Louis, MO, USA)). Cells were harvested from mid-log phase cultures by centrifugation and washed into an assay buffer (AB) as described, at a density of 1 × 10^8 cells mL^−1. Transport assays were then performed exactly as described previously, using an oil-stop protocol. Briefly, 100 µL of cell suspension (10^7 cells) was mixed with 100 µL of [^3H]-substrate at 2 × final concentration and incubated for a pre-set time prior to the addition of 800 µL of ice-cold AB containing a saturating concentration of unlabeled permeant (usually 1 or 2.5 mM) and immediate centrifugation through an oil layer to separate cells from extracellular radiolabel. The 100 µL of [^3H]-substrate could also contain unlabeled substrate or an inhibitor at 2 × concentration, as appropriate. Next, the microfuge tubes were flash frozen in liquid nitrogen; the tips with the cell pellets cut off and collected in scintillation tubes. Cells were solubilized by incubation in 2% SDS under gentle shaking on a rocking platform prior to the addition of scintillation fluid (Scintilogic U, Lablogic, Sheffield, UK). The tubes stored in the dark overnight before counting in a 300SL Hidex Scintillation Counter (Lablogic).
Michaelis-Menten constants (Km) were calculated by plotting transport rates of [^3H]-substrate against the concentration, using the Michaelis-Menten equation V0 = Vmax([substrate]/([substrate] + Km)) and non-linear regression in GraphPad Prism 8. Inhibition constants (Ki) were calculated using the Cheng-Prusoff equation: Ki = IC50/(1 + (L/Km)), where L represents the radiolabel concentration. The IC50 was obtained by a non-linear regression of the inhibition curve of transport rate versus inhibitor concentration, using an equation for a sigmoid curve with variable slope (GraphPad Prism 8). The Gibbs free energy ΔG° was obtained using the equation ΔG° = −RTln(Ki), in which R is the gas constant and T is the absolute temperature. As discussed previously, these equations apply to competitive rather than non-competitive inhibition. Given that only close analogues of the substrate were used as potential inhibitors and that Hill slopes were consistently close to −1, it is very likely that inhibition was indeed competitive.

[5] = biological target: T1, TcrNT2; settings: cited from earlier work; for Ki: earlier characterization, TcrNT2 expressed in T. brucei, ref Campagnaro et al. [30], read-out: Ki on thymidine transport by TcrNT2
[6] = calculated from Km or Ki at 25 °C
[7] = read-out: Ki on the transport of [^3H]-thymidine by TcrNT2
[8] = TcrNT2 in L. mexicana Cas9^ΔNT1, […] [^3H]-thymidine, IC50 converted to Ki (Cheng-Prusoff), read-out: Ki on the transport of [^3H]-thymidine by TcrNT2

Row | SMILES | EC50 [1] [µM] | RF vs. Cas9 (resistance factor) [2] | RF vs. ΔNT1 (resistance factor) [3] | other results
1 | Nc1ncnc2c1c(-c1ccc(Cl)c(Cl)c1)cn2[C@@H]1O[C@H](CO)C[C@H]1O [FH8513, 7-(3,4-dichlorophenyl)-3′-deoxytubercidin] | ~100 | 0.94 | 3 | –
2 | Nc1ncnc2c1c(F)cn2[C@@H]1O[C@H](CO)C[C@H]1O [FH8517, 7-F-3′-deoxytubercidin] | 3.18 ± 0.78 | 3.93 | 1.28 | –
3 | Cc1cn([C@H]2C[C@H](O)[C@@H](C)O2)c(=O)[nH]c1=O [5′-deoxythymidine] | – | – | – | ΔG° (Gibbs free energy of interaction) [4, 6]: -32.3 kJ/mol; δ(ΔG°) with respect to ΔG° of thymidine [4]: -5.26 kJ/mol; Ki [4, 7]: 2.2 ± 0.03 µM
4 | Nc1ncnc2c1c(F)cn2[C@@H]1O[C@H](CO)[C@@H](F)[C@H]1O [JB588, 7-F,3′-F-tubercidin] | 0.51 ± 0.093 | 17.3 | 2.15 | –
5 | C#Cc1cn([C@@H]2O[C@H](CO)C[C@H]2O)c2ncnc(N)c12 [FH8505] | 47.2 ± 1.47 | 1.13 | 1.47 | –
6 | Nc1ncnc2c1c(Br)nn2[C@@H]1O[C@H](CO)[C@@H](O)[C@H]1O [JBMAM021] | 3.8 ± 0.66 | 79.9 | 0.97 | –
7 | Cc1cn([C@@H]2O[C@H](CO)[C@@H](O)[C@H]2O)c(=O)[nH]c1=O [5-Me-uridine, 5-methyluridine] | – | – | – | ΔG° (Gibbs free energy of interaction) [4, 6]: -26.0 kJ/mol; δ(ΔG°) with respect to ΔG° of thymidine [4]: -11.6 kJ/mol; δ(ΔG°) with respect to ΔG° of thymidine ([4]; listed as 5-Me-Urd): 11.6 kJ/mol; δ(ΔG°) with respect to ΔG° of thymidine ([4]; listed as 5-methyluridine): 11.57 kJ/mol; δ(ΔG°), pairwise comparison with uridine [4]: -4.50 kJ/mol; Ki [4, 7]: 28 ± 0.4 µM
8 | Nc1ncnc2c1c(-c1ccc(Cl)cc1)nn2[C@@H]1O[C@H](CO)[C@@H](O)[C@H]1O [JB602] | > 500 | – | – | –
9 | Cc1cn([C@H]2CC[C@@H](CO)O2)c(=O)[nH]c1=O [3′-deoxythymidine] | – | – | – | ΔG° (Gibbs free energy of interaction) [4, 6]: -19.9 kJ/mol; δ(ΔG°) with respect to ΔG° of thymidine [4]: -17.6 kJ/mol; Ki [4, 7]: 322 ± 22.6 µM
10 | N=C(N)c1ccc(OCCCCCOc2ccc(C(=N)N)cc2)cc1 [Pentamidine] | 0.87 ± 0.104 | 1.43 | 1.11 | –
11 | O=c1[nH]c(=O)n([C@H]2C[C@H](O)[C@@H](CO)O2)cc1I [5-I-2′-deoxyuridine] | – | – | – | Ki [4, 8]: 0.19 ± 0.04 µM; ΔG° (Gibbs free energy of interaction) [4, 6]: -38.3 kJ/mol; δ(ΔG°), pairwise comparison with 2′-deoxyuridine [4]: 4.79 kJ/mol; δ(ΔG°), pairwise comparison with 2′-deoxyuridine ([4]; listed as 5-I-2′-dUrd): -4.8 kJ/mol
12 | CNc1ncnc2c1ccn2[C@@H]1O[C@H](CO)[C@@H](O)[C@H]1O [CL5564] | > 100 | – | >5.6 | –
13 | Cc1cn([C@H]2C[C@H](O)[C@@H](CO)O2)c(=O)[nH]c1=S [4-thiothymidine] | – | – | – | ΔG° (Gibbs free energy of interaction) [4, 6]: -31.7 kJ/mol; Ki [4, 7]: 2.79 ± 0.11 µM
14 | O=c1ccn([C@H]2C[C@H](O)[C@@H](CO)O2)c(=O)[nH]1 [2′-deoxyuridine] | – | – | – | ΔG° (Gibbs free energy of interaction) [4, 6]: -33.6 kJ/mol; δ(ΔG°) with respect to ΔG° of thymidine [4]: -3.99 kJ/mol; Ki [4, 7]: 1.31 ± 0.002 µM; Ki [5]: 1.11 ± 0.1 µM
15 | O=c1ccn([C@@H]2O[C@H](CO)[C@@H](O)[C@H]2O)c(=O)[nH]1 [Uridine] | – | – | – | ΔG° (Gibbs free energy of interaction) [4, 6]: -21.5 kJ/mol; δ(ΔG°) with respect to ΔG° of thymidine [4]: -16.1 kJ/mol; δ(ΔG°) with respect to ΔG° of thymidine ([4]; listed as uridine): 16.1 kJ/mol; δ(ΔG°), pairwise comparison with 2′-deoxyuridine [4]: 12.1 kJ/mol; Ki [4, 7]: 172 ± 8 µM; fold lower affinity than thymidine ([5]; TcrNT2 expressed in T. b. brucei, ref [30]): 300 fold
16 | Cc1ncnc2c1c(-c1ccc(Cl)cc1)cn2[C@@H]1O[C@H](CO)[C@@H](O)[C@H]1O [CL4501] | ~100 | 0.84 | 2.2 | –
17 | Nc1ccn([C@@H]2O[C@H](CO)[C@@H](O)[C@H]2O)c(=O)n1 [cytidine] | – | – | – | Ki [5]: 728 ± 71 µM
18 | Nc1ncnc2c1c(Br)cn2[C@@H]1O[C@H](CO)C[C@H]1O [FH7429-UP] | 8 ± 0.8 | 1.17 | 2.27 | –
19 | Cc1cn([C@H]2C[C@H](O)[C@@H](CO)O2)c(=S)[nH]c1=O [2-thiothymidine] | – | – | – | Ki [4]: 3.38 ± 0.26 µM; ΔG° (Gibbs free energy of interaction) [4]: -31.2 kJ/mol
20 | Nc1ncnc2c1cnn2[C@@H]1O[C@H](CO)[C@@H](O)[C@H]1O [JBMAM030, aminopurinol riboside] | 7.81 ± 0.9 | 39.8 | 0.94 | –
21 | Nc1ncnc2c1c(I)cn2[C@@H]1O[C@H](CO)[C@@H](O)[C@H]1O [FH3141] | 1.08 ± 0.202 | 13.4 | 7.83 | –
22 | Nc1ncnc2c1c(I)cn2[C@@H]1O[C@H](CO)[C@@H](F)[C@H]1O [JB526, 7-I,3′-F-tubercidin] | ~100 | ~0.84 | 11.6 | –
23 | Nc1ncnc2c1c(C(F)(F)F)cn2[C@@H]1O[C@H](CO)[C@@H](O)[C@H]1O [FH6367, 7-(trifluoromethyl)-tubercidin] | 1.42 ± 0.177 | 1.44 | 1.91 | –
24 | Nc1ncnc2c1c(F)cn2[C@@H]1O[C@H](CO)[C@@H](O)[C@H]1O [FH3167, 7-F-tubercidin] | 0.22 ± 0.09 | 40.7 | 41.9 | –
25 | O=c1[nH]c(=O)n([C@@H]2O[C@H](CO)[C@@H](O)[C@H]2O)cc1Br [5-Br-uridine] | – | – | – | Ki [4, 8]: 30.1 ± 1.8 µM; ΔG° (Gibbs free energy of interaction) [4, 6]: -25.8 kJ/mol; δ(ΔG°) with respect to ΔG° of thymidine [4]: -11.8 kJ/mol; δ(ΔG°), pairwise comparison with uridine [4]: -4.3 kJ/mol
26 | C#Cc1cn([C@@H]2O[C@H](CO)[C@@H](O)[C@H]2O)c2ncnc(N)c12 [FH3143] | 0.12 ± 0.021 | 7.74 | 3.11 | –
27 | C[C@H]1O[C@@H](n2ccc(=O)[nH]c2=O)[C@H](O)[C@@H]1O [5′-deoxyuridine] | – | – | – | δ(ΔG°), pairwise comparison with uridine [4]: -4.41 kJ/mol; Ki [4, 7]: 1020 ± 57 µM
28 | Nc1ncnc2c1c(-c1ccccc1)cn2[C@@H]1O[C@H](CO)C[C@H]1O [FH8480] | > 500 | – | – | –
